PubChem BioAssay AID1259407 (Chemical Carcinogenesis Research Information System (CCRIS), 2018)
Active and inactive are the calls of the source. How the calls were made is not given here.

Test system: CCRIS mutagenicity, Ames/micronucleus/aberration tests
Assay: CCRIS mutagenicity studies
[1] = Test System: AMES SALMONELLA TYPHIMURIUM, Strain/Indicator: TA1535, Metabolic Activation: NONE, Method: PREINCUBATION
[2] = Test System: AMES SALMONELLA TYPHIMURIUM, Strain/Indicator: TA1537, Metabolic Activation: NONE, Method: PREINCUBATION
[3] = Test System: AMES SALMONELLA TYPHIMURIUM, Strain/Indicator: TA98, Metabolic Activation: RAT, LIVER, S-9, AROCLOR 1254, Method: STANDARD PLATE
[4] = Test System: AMES SALMONELLA TYPHIMURIUM, Strain/Indicator: TA100, Metabolic Activation: NONE, Method: PREINCUBATION
[5] = Test System: AMES SALMONELLA TYPHIMURIUM, Strain/Indicator: TA104, Metabolic Activation: NONE, Method: PREINCUBATION
[6] = Test System: AMES SALMONELLA TYPHIMURIUM, Strain/Indicator: TA98, Metabolic Activation: NONE, Method: STANDARD PLATE
[7] = Test System: AMES SALMONELLA TYPHIMURIUM, Strain/Indicator: TA100, Metabolic Activation: NONE, Method: STANDARD PLATE
[8] = Test System: AMES SALMONELLA TYPHIMURIUM, Strain/Indicator: TA98, Metabolic Activation: HAMSTER, LIVER, S-9, AROCLOR 1254 (10%), Method: PREINCUBATION
[9] = Test System: AMES SALMONELLA TYPHIMURIUM, Strain/Indicator: TA98, Metabolic Activation: NONE, Method: PREINCUBATION
[10] = Test System: AMES SALMONELLA TYPHIMURIUM, Strain/Indicator: TA98, Metabolic Activation: RAT, LIVER, S-9, AROCLOR 1254 (10%), Method: PREINCUBATION
[11] = Test System: AMES SALMONELLA TYPHIMURIUM, Strain/Indicator: TA100, Metabolic Activation: HAMSTER, LIVER, S-9, AROCLOR 1254 (10%), Method: PREINCUBATION
[12] = Test System: AMES SALMONELLA TYPHIMURIUM, Strain/Indicator: TA100, Metabolic Activation: RAT, LIVER, S-9, AROCLOR 1254 (10%), Method: PREINCUBATION
[13] = Test System: AMES SALMONELLA TYPHIMURIUM, Strain/Indicator: TA1535, Metabolic Activation: HAMSTER, LIVER, S-9, AROCLOR 1254 (10%), Method: PREINCUBATION
[14] = Test System: AMES SALMONELLA TYPHIMURIUM, Strain/Indicator: TA1535, Metabolic Activation: RAT, LIVER, S-9, AROCLOR 1254 (10%), Method: PREINCUBATION
[15] = Test System: AMES SALMONELLA TYPHIMURIUM, Strain/Indicator: TA1537, Metabolic Activation: HAMSTER, LIVER, S-9, AROCLOR 1254 (10%), Method: PREINCUBATION
[16] = Test System: AMES SALMONELLA TYPHIMURIUM, Strain/Indicator: TA1537, Metabolic Activation: RAT, LIVER, S-9, AROCLOR 1254 (10%), Method: PREINCUBATION

Nc1cccc2nc3ccccc3c(N)c12
mutagenic call [1]: inactive; negative | mutagenic call (Test System: AMES SALMONELLA TYPHIMURIUM, Strain/Indicator: TA1535, Metabolic Activation: RAT, LIVER, S-9, TETRACHLOROBIPHENYL, Method: PREINCUBATION): active; positive | mutagenic call [2]: active; positive | mutagenic call (Test System: AMES SALMONELLA TYPHIMURIUM, Strain/Indicator: TA1537, Metabolic Activation: RAT, LIVER, S-9, TETRACHLOROBIPHENYL, Method: PREINCUBATION): active; positive | mutagenic call (Test System: AMES SALMONELLA TYPHIMURIUM, Strain/Indicator: TA1538, Metabolic Activation: NONE, Method: PREINCUBATION): inactive; negative | mutagenic call (Test System: AMES SALMONELLA TYPHIMURIUM, Strain/Indicator: TA1538, Metabolic Activation: RAT, LIVER, S-9, TETRACHLOROBIPHENYL, Method: PREINCUBATION): active; positive | mutagenic call (Test System: AMES SALMONELLA TYPHIMURIUM, Strain/Indicator: TA1975, Metabolic Activation: RAT, LIVER, S-9, TETRACHLOROBIPHENYL, Method: PREINCUBATION): active; positive | mutagenic call (Test System: AMES SALMONELLA TYPHIMURIUM, Strain/Indicator: TA1977, Metabolic Activation: NONE, Method: PREINCUBATION): active; positive | mutagenic call (Test System: AMES SALMONELLA TYPHIMURIUM, Strain/Indicator: TA1977, Metabolic Activation: RAT, LIVER, S-9, TETRACHLOROBIPHENYL, Method: PREINCUBATION): active; positive | mutagenic call (Test System: AMES SALMONELLA TYPHIMURIUM, Strain/Indicator: TA1978, Metabolic Activation: RAT, LIVER, S-9, TETRACHLOROBIPHENYL, Method: PREINCUBATION): active; positive

CC(=O)N(Nc1ccc2c(c1)Cc1ccccc1-2)c1ccc2c(c1)Cc1ccccc1-2
mutagenic call [3]: active; positive

CCOCCl
mutagenic call (Test System: E. COLI, Strain/Indicator: H/R30R, Metabolic Activation: NONE, Method: PREINCUBATION): active; positive | mutagenic call (Test System: E. COLI, Strain/Indicator: HS30R UVRA, Metabolic Activation: NONE, Method: PREINCUBATION): active; positive

CCOC(=O)N(CCC=O)N=O
mutagenic call [4]: active; positive | mutagenic call [5]: active; positive | mutagenic call [1]: active; positive

CC(=O)Nc1cc2c(cc1[N+](=O)[O-])[nH]c1ccccc12
mutagenic call [6]: active; positive | mutagenic call (Test System: AMES SALMONELLA TYPHIMURIUM, Strain/Indicator: TA98, Metabolic Activation: RAT, LIVER, S-9, PHENOBARBITAL, Method: STANDARD PLATE): active; positive | mutagenic call [7]: inactive; negative | mutagenic call (Test System: AMES SALMONELLA TYPHIMURIUM, Strain/Indicator: TA100, Metabolic Activation: RAT, LIVER, S-9, PHENOBARBITAL, Method: STANDARD PLATE): inactive; negative | mutagenic call (Test System: AMES SALMONELLA TYPHIMURIUM, Strain/Indicator: TA1537, Metabolic Activation: NONE, Method: STANDARD PLATE): inactive; negative | mutagenic call (Test System: AMES SALMONELLA TYPHIMURIUM, Strain/Indicator: TA1537, Metabolic Activation: RAT, LIVER, S-9, PHENOBARBITAL, Method: STANDARD PLATE): inactive; negative | mutagenic call (Test System: AMES SALMONELLA TYPHIMURIUM, Strain/Indicator: TA1538, Metabolic Activation: NONE, Method: STANDARD PLATE): active; positive | mutagenic call (Test System: AMES SALMONELLA TYPHIMURIUM, Strain/Indicator: TA1538, Metabolic Activation: RAT, LIVER, S-9, PHENOBARBITAL, Method: STANDARD PLATE): active; positive | mutagenic call (Test System: AMES SALMONELLA TYPHIMURIUM, Strain/Indicator: TA1977, Metabolic Activation: NONE, Method: STANDARD PLATE): inactive; negative | mutagenic call (Test System: AMES SALMONELLA TYPHIMURIUM, Strain/Indicator: TA1977, Metabolic Activation: RAT, LIVER, S-9, PHENOBARBITAL, Method: STANDARD PLATE): inactive; negative

Cc1nc2ccc3ccc4ccc(O)cc4c3c2n1C
mutagenic call (Test System: AMES SALMONELLA TYPHIMURIUM, Strain/Indicator: TA98, Metabolic Activation: RAT, LIVER, S-9, AROCLOR, Method: STANDARD PLATE): active; positive

CC(=O)N(O)c1ccccc1
mutagenic call [6]: inactive; negative | mutagenic call [3]: inactive; negative | mutagenic call [7]: inactive; negative | mutagenic call (Test System: AMES SALMONELLA TYPHIMURIUM, Strain/Indicator: TA100, Metabolic Activation: RAT, LIVER, S-9, AROCLOR 1254, Method: STANDARD PLATE): inactive; negative

CCOC(=O)OCC
mutagenic call [8]: inactive; negative | mutagenic call [9]: inactive; negative | mutagenic call [10]: inactive; negative | mutagenic call [11]: inactive; negative | mutagenic call [4]: inactive; negative | mutagenic call [12]: inactive; negative | mutagenic call [13]: inactive; negative | mutagenic call [1]: inactive; negative | mutagenic call [14]: inactive; negative | mutagenic call [15]: inactive; negative | mutagenic call [2]: inactive; negative | mutagenic call [16]: inactive; negative

Cc1cc2ccccc2c2ccc3c(c12)C=CC(=O)C3=O
mutagenic call (Test System: AMES SALMONELLA TYPHIMURIUM, Strain/Indicator: TA97A, Metabolic Activation: NONE, Method: PREINCUBATION): active; positive | mutagenic call [9]: inactive; negative | mutagenic call [4]: active; positive | mutagenic call (Test System: AMES SALMONELLA TYPHIMURIUM, Strain/Indicator: TA102, Metabolic Activation: NONE, Method: PREINCUBATION): inactive; negative | mutagenic call [5]: inactive; negative

COc1ccccc1/C=C/C=C(/C#N)c1ccc(Br)cc1
mutagenic call (Test System: AMES SALMONELLA TYPHIMURIUM, Strain/Indicator: TA97A, Metabolic Activation: NONE, Method: STANDARD PLATE): active; positive

Nc1ccc(C(=O)O)cc1
mutagenic call [8]: inactive; negative | mutagenic call [9]: inactive; negative | mutagenic call [10]: inactive; negative | mutagenic call [11]: inactive; negative | mutagenic call [4]: inactive; negative | mutagenic call [12]: inactive; negative | mutagenic call [13]: inactive; negative | mutagenic call [1]: inactive; negative | mutagenic call [14]: inactive; negative | mutagenic call [15]: inactive; negative | mutagenic call [2]: inactive; negative | mutagenic call [16]: inactive; negative

Nc1nc(-c2cccc([N+](=O)[O-])c2)nc2c1ncn2[C@@H]1O[C@H](CO)[C@@H](O)[C@H]1O
mutagenic call [9]: inactive; negative | mutagenic call (Test System: AMES SALMONELLA TYPHIMURIUM, Strain/Indicator: TA98, Metabolic Activation: RAT, LIVER, S-9, PCB, Method: PREINCUBATION): inactive; negative | mutagenic call [4]: active; positive | mutagenic call (Test System: AMES SALMONELLA TYPHIMURIUM, Strain/Indicator: TA100, Metabolic Activation: RAT, LIVER, S-9, PCB, Method: PREINCUBATION): active; positive
